Converted amounts (≈) assume the structure as drawn.
Columns and labels:
[1] = Cytotoxicity against human C8166 cells assessed as inhibition of cell growth by MTT assay; assay type: toxicity, cell-based
[2] = system: Human immunodeficiency virus 1; experiment: Antiviral activity against HIV-1 3B harboring reverse transcriptase infected in human MT4 cells assessed as protection against virus-induced cytopathic effect incubated for 5 days by MTT assay; assay type: functional, organism-based; details: Human immunodeficiency virus 1, 3B, MT4, 120 h
[3] = system: Human immunodeficiency virus 1; experiment: Antiviral activity against HIV-1 3B harboring reverse transcriptase infected in human C8166 cells assessed as protection against virus-induced cytopathic effect incubated for 5 days by MTT assay; assay type: functional, organism-based; details: Human immunodeficiency virus 1, 3B, C8166, 120 h
[4] = system: Human immunodeficiency virus 1; experiment: Antiviral activity against HIV-1 3B infected in human MT4 cells assessed as inhibition of viral replication incubated for 5 days by MTT assay; assay type: functional, organism-based; details: Human immunodeficiency virus 1, 3B, MT4, 120 h
[5] = Cytotoxicity against human C8166 cells assessed as inhibition of cell growth incubated for 48 hrs by MTT assay; assay type: toxicity, cell-based
[6] = biological target: Human immunodeficiency virus type 1 reverse transcriptase (Human immunodeficiency virus 1, UniProt Q72547); experiment: Inhibition of HIV1 reverse transcriptase
[7] = system: Human immunodeficiency virus 1; experiment: Anti-HIV activity against HIV-1 IIIB infected in human C8166 cells assessed as inhibition of virus-induced cytopathic effect by MTT assay; assay type: functional, organism-based; details: Human immunodeficiency virus 1, IIIB
[8] = system: Influenza A virus; experiment: Antiviral activity against influenza A virus A/Hong Kong/1/68 (HK1, H3N2) infected in dog MDCK cells assessed as cytopathic effect; assay type: functional, organism-based
[9] = system: Influenza A virus; experiment: Antiviral activity against influenza A virus H5N1 infected in dog MDCK cells assessed as viral growth inhibition; assay type: functional, organism-based
[10] = Inhibition of Influenza A virus A/California/04/2009 (H1N1) N-terminal his tagged domain of PA endonuclease expressed in Escherichia coli BL21 (DE3) cells
[11] = system: Influenza A virus; experiment: Antiviral activity against influenza A virus H1N1(A/PR/8/34) infected in MDCK cells assessed as inhibition of cytopathic effect incubated for 48 hrs by MTT assay; assay type: functional, organism-based
[12] = Cytotoxicity against MDCK cells assessed as inhibition of cell growth incubated for 48 hrs by MTT assay; assay type: toxicity, cell-based, Canis lupus familiaris; details: dog
[13] = system: Human alphaherpesvirus 1; experiment: Antiviral activity against HSV-1 assessed as inhibition of viral growth; assay type: functional, organism-based

In the case of `C=CC(C)(C)c1cc2cc(CC(=O)C(C)C)c(OC)cc2oc1=O`, the CC50 [1] is reported as over 200 µM and the EC50 [2] is reported as 0.12 µM.

In the case of `COc1cc2oc(CO)cc(=O)c2c(O)c1CCC(C)(C)O`, the CC50 [1] is reported as over 200 µM and the EC50 [3] is reported as 0.09 µM.

`C=CC(C)(C)c1cc2cc(C[C@@H](O)C(C)(C)O)c(O)cc2oc1=O` gave a CC50 [1] of over 200 µM and an EC50 [3] of 0.68 µM.

Work on `C=CC(C)(C)c1cc2cc(C[C@@H](OCC)C(C)(C)O)c(OC)cc2oc1=O` yielded a CC50 [1] of over 200 µM and an EC50 [2] of 0.42 µM.

For `CC(C)=CCc1c(O)cc2oc(CO)cc(=O)c2c1O`, the CC50 [1] was over 200 µM and the EC50 [3] was 0.67 µM.

With `COc1cc2oc(CO)cc(=O)c2c(OC)c1CC=C(C)C` the CC50 [1] was over 200 µM and the EC50 [3] was 1.32 µM.

In the case of `C=CC(CO)[C@@H]1C[C@H]2c3[nH]c4ccccc4c3CCN2C(=O)[C@H]1CO` (stereo partly specified), the EC50 [4] is reported as 0.06 µM.

Work on `COc1c2c(cc3oc(CO)cc(=O)c13)OC(C)(C)C=C2` yielded a CC50 [1] of over 200 µM and an EC50 [3] of 9.72 µM.

Molecule `C=CC(C)(C)c1cc2cc3c(cc2oc1=O)O[C@H](C(C)(C)O)[C@H]3O` has a CC50 [1] of over 200 µM and an EC50 [3] of 0.17 µM.

`C=CC(CO)[C@@H]1C[C@H]2c3[nH]c4ccccc4c3CCN2C(=O)[C@@H]1CO` (stereo partly specified) gave a CC50 at 48 h [5] of over 200 µM and an EC50 [4] of 0.23 µM.

For `COc1cc2oc(CO)cc(=O)c2c(O)c1CC=C(C)C`, the CC50 [1] was over 200 µM and the EC50 [3] was 0.96 µM.

`C=CC(C)(C)c1cc2cc(C[C@@H](OC)C(C)(C)O)c(OC)cc2oc1=O` gave a CC50 [1] of over 200 µM and an EC50 [2] of 0.33 µM.

`COc1cc(C)c(Cc2cc3c([nH]c4ccccc43)c3c2OC(C)(C)C=C3)c2c1[nH]c1ccccc12` showed a CC50 at 48 h [5] of over 200 µM and an IC50 [6] of 0.0186 µM.

Molecule `COc1cccc2c1-c1c3c(c(OC)c4cc[n+]([O-])c(c14)C2=O)OCO3` has an EC50 [7] of 2.18 µM and a CC50 at 48 h [5] of 56.6 µM.

Work on `O=C(OC[C@H]1O[C@@H](Oc2ccc(O)cc2C(=O)O)[C@H](OC(=O)c2cc(O)c(O)c(O)c2)[C@@H](O)[C@@H]1O)c1cc(O)c(O)c(O)c1` yielded an EC50 [8] of 31.2 µM, an IC50 [9] of 21.1 µM and an IC50 [10] of 27.6 µM. For the same molecule, the EC50 [11] was 32.1 µM and the CC50 at 48 h [12] was 835 µM.

`COc1cc(OC)c([N+](=O)[O-])c2c1-c1c3c(c(OC)c4c1[C@@H](C2)NCC4)OCO3` showed an EC50 [7] of 1.93 µM and a CC50 at 48 h [5] of 28.7 µM.

With `C/C=C1/C[N+]23CCc4c([nH]c5ccccc45)[C@@H]2C[C@H]1C3C(=O)[O-]` (stereo partly specified) the EC50 [13] was 1.09 µg/mL (≈ 3.53 µM).

With `C[C@H]1CC(=O)[C@@H]2CCCN(C)CCCC(=O)/C(=N\O)C[C@@H]2C1` the EC50 [7] was 52.9 µg/mL and the CC50 at 48 h [5] was over 200 µM.

Work on `CCCCCC(O)/C=C/C=C\CCCCCC[C@@]1(O)C[C@H](C(=O)OC)[C@H](C(C)=O)O1` (stereo partly specified) yielded a CC50 [1] of over 200 µM and an EC50 [3] of 0.08 µM.

Molecule `C=C1[C@H]2O[C@@H](OC)[C@H]3[C@@H]1[C@@H]1O[C@@H]1[C@@]3(CO)O2` has a CC50 [1] of over 200 µM and an IC50 [6] of 7.23 µM.
